Laboratory results: paper PMC5074247 (Biopharmaceutics & Drug Disposition, 2016)
Read-outs that look alike come from different tables or passages of the source.

Assays:
[1] = Tissue distribution of radioactivity in SD rats; assay type: in vivo, Sprague–Dawley rats; conditions: oral 1 mg/kg
[2] = assay type: in vivo, Sprague–Dawley rats; conditions: all time‐points measured; oral 1 mg/kg [^14C]teneligliptin; SD rats
[3] = Volume of distribution at steady state after intravenous administration to rats; assay type: in vivo; conditions: rat, plasma
[4] = Whole‐body autoradiography of SD rats; assay type: in vivo, Sprague–Dawley rats; conditions: 168 h, oral 1 mg/kg, SD rat
[5] = cited from earlier work
[6] = SHRcp model ref 40; cited from earlier work

- Concentration of radioactivity ([1]; Adrenal, 0.5 h): 1221.7 ± 289.0 ng eq/ml or g
- Concentration of radioactivity ([1]; Adrenal, 5 h): 323.7 ± 90.7 ng eq/ml or g
- Concentration of radioactivity ([1]; Adrenal, 12 h): 177.0 ± 22.7 ng eq/ml or g
- Concentration of radioactivity ([1]; Adrenal, 24 h): 100.4 ± 8.8 ng eq/ml or g
- Concentration of radioactivity ([1]; Adrenal, 72 h): 20.5 ± 4.3 (N.C.) ng eq/ml or g
- Concentration of radioactivity ([1]; Adrenal, 168 h): 6.5 ± 4.5 (N.C.) ng eq/ml or g
- Concentration of radioactivity ([1]; Aorta, 0.5 h): 488.7 ± 78.4 ng eq/ml or g
- Concentration of radioactivity ([1]; Aorta, 5 h): 99.0 ± 46.0 ng eq/ml or g
- Concentration of radioactivity ([1]; Aorta, 12 h): 35.7 ± 16.7 ng eq/ml or g
- Concentration of radioactivity ([1]; Aorta, 24 h): 15.4 ± 5.2 ng eq/ml or g
- Concentration of radioactivity ([1]; Bone, 0.5 h): 118.7 ± 22.2 ng eq/ml or g
- Concentration of radioactivity ([1]; Bone, 5 h): 52.3 ± 19.9 ng eq/ml or g
- Concentration of radioactivity ([1]; Bone, 12 h): 23.8 ± 7.5 ng eq/ml or g
- Concentration of radioactivity ([1]; Epididymis, 0.5 h): 232.5 ± 61.7 ng eq/ml or g
- Concentration of radioactivity ([1]; Epididymis, 5 h): 352.5 ± 76.0 ng eq/ml or g
- Concentration of radioactivity ([1]; Epididymis, 12 h): 259.9 ± 44.4 ng eq/ml or g
- Concentration of radioactivity ([1]; Epididymis, 24 h): 167.6 ± 35.4 ng eq/ml or g
- Concentration of radioactivity ([1]; Epididymis, 72 h): 44.9 ± 3.8 (N.C.) ng eq/ml or g
- Concentration of radioactivity ([1]; Epididymis, 168 h): 11.2 ± 3.3 (N.C.) ng eq/ml or g
- Concentration of radioactivity ([1]; Heart, 0.5 h): 454.0 ± 85.0 ng eq/ml or g
- Concentration of radioactivity ([1]; Heart, 5 h): 118.7 ± 34.6 ng eq/ml or g
- Concentration of radioactivity ([1]; Heart, 12 h): 56.6 ± 8.9 ng eq/ml or g
- Concentration of radioactivity ([1]; Heart, 24 h): 30.6 ± 2.7 ng eq/ml or g
- Concentration of radioactivity ([1]; Heart, 72 h): 6.3 ± 1.1 (N.C.) ng eq/ml or g
- Concentration of radioactivity ([1]; Kidney, 0.5 h): 4568.2 ± 609.1 ng eq/ml or g
- Concentration of radioactivity ([1]; Kidney, 5 h): 3292.8 ± 76.8 ng eq/ml or g
- Concentration of radioactivity ([1]; Kidney, 12 h): 2872.1 ± 419.4 ng eq/ml or g
- Concentration of radioactivity ([1]; Kidney, 24 h): 2637.8 ± 410.3 ng eq/ml or g
- Concentration of radioactivity ([1]; Kidney, 72 h): 1548.5 ± 192.3 (N.C.) ng eq/ml or g
- Concentration of radioactivity ([1]; Kidney, 168 h): 606.1 ± 203.2 (N.C.) ng eq/ml or g
- Concentration of radioactivity ([1]; Liver, 0.5 h): 4686.7 ± 932.3 ng eq/ml or g
- Concentration of radioactivity ([1]; Liver, 5 h): 1753.2 ± 130.4 ng eq/ml or g
- Concentration of radioactivity ([1]; Liver, 12 h): 814.1 ± 68.7 ng eq/ml or g
- Concentration of radioactivity ([1]; Liver, 24 h): 389.5 ± 49.5 ng eq/ml or g
- Concentration of radioactivity ([1]; Liver, 72 h): 250.2 ± 21.8 (N.C.) ng eq/ml or g
- Concentration of radioactivity ([1]; Liver, 168 h): 92.4 ± 17.2 (N.C.) ng eq/ml or g
- Concentration of radioactivity ([1]; Lung, 0.5 h): 1938.4 ± 456.7 ng eq/ml or g
- Concentration of radioactivity ([1]; Lung, 5 h): 714.7 ± 116.7 ng eq/ml or g
- Concentration of radioactivity ([1]; Lung, 12 h): 500.7 ± 40.2 ng eq/ml or g
- Concentration of radioactivity ([1]; Lung, 24 h): 323.6 ± 46.7 ng eq/ml or g
- Concentration of radioactivity ([1]; Lung, 72 h): 71.3 ± 12.9 (N.C.) ng eq/ml or g
- Concentration of radioactivity ([1]; Lung, 168 h): 16.9 ± 5.9 (N.C.) ng eq/ml or g
- Concentration of radioactivity ([1]; Pancreas, 0.5 h): 1253.9 ± 341.0 ng eq/ml or g
- Concentration of radioactivity ([1]; Pancreas, 5 h): 298.9 ± 83.1 ng eq/ml or g
- Concentration of radioactivity ([1]; Pancreas, 12 h): 107.8 ± 22.6 ng eq/ml or g
- Concentration of radioactivity ([1]; Pancreas, 24 h): 50.8 ± 1.2 ng eq/ml or g
- Concentration of radioactivity ([1]; Pancreas, 72 h): 8.3 ± 1.8 (N.C.) ng eq/ml or g
- Concentration of radioactivity ([1]; Pancreas, 168 h): 3.4 ± 0.9 (N.C.) ng eq/ml or g
- Concentration of radioactivity ([1]; Prostate, 0.5 h): 478.6 ± 167.1 ng eq/ml or g
- Concentration of radioactivity ([1]; Prostate, 5 h): 169.0 ± 53.9 ng eq/ml or g
- Concentration of radioactivity ([1]; Prostate, 12 h): 76.7 ± 18.8 ng eq/ml or g
- Concentration of radioactivity ([1]; Prostate, 24 h): 38.6 ± 3.3 ng eq/ml or g
- Concentration of radioactivity ([1]; Prostate, 72 h): 6.1 ± 1.3 (N.C.) ng eq/ml or g
- Concentration of radioactivity ([1]; Prostate, 168 h): 2.2 ± 0.6 (N.C.) ng eq/ml or g
- Concentration of radioactivity ([1]; Seminal vesicle, 0.5 h): 329.0 ± 105.4 ng eq/ml or g
- Concentration of radioactivity ([1]; Seminal vesicle, 5 h): 133.8 ± 57.4 ng eq/ml or g
- Concentration of radioactivity ([1]; Seminal vesicle, 12 h): 51.0 ± 6.3 ng eq/ml or g
- Concentration of radioactivity ([1]; Seminal vesicle, 24 h): 18.7 ± 4.4 ng eq/ml or g
- Concentration of radioactivity ([1]; Seminal vesicle, 72 h): 1.7 ± 2.0 (N.C.) ng eq/ml or g
- Concentration of radioactivity ([1]; Skeletal muscle, 0.5 h): 242.5 ± 66.9 ng eq/ml or g
- Concentration of radioactivity ([1]; Skeletal muscle, 5 h): 46.7 ± 20.1 ng eq/ml or g
- Concentration of radioactivity ([1]; Skeletal muscle, 12 h): 16.7 ± 2.4 ng eq/ml or g
- Concentration of radioactivity ([1]; Skeletal muscle, 24 h): 7.9 ± 1.1 ng eq/ml or g
- Concentration of radioactivity ([1]; Skin, 0.5 h): 366.3 ± 77.9 ng eq/ml or g
- Concentration of radioactivity ([1]; Skin, 5 h): 199.1 ± 47.5 ng eq/ml or g
- Concentration of radioactivity ([1]; Skin, 12 h): 99.2 ± 14.6 ng eq/ml or g
- Concentration of radioactivity ([1]; Skin, 24 h): 55.2 ± 2.9 ng eq/ml or g
- Concentration of radioactivity ([1]; Skin, 72 h): 18.9 ± 1.6 (N.C.) ng eq/ml or g
- Concentration of radioactivity ([1]; Skin, 168 h): 9.3 ± 3.3 (N.C.) ng eq/ml or g
- Concentration of radioactivity ([1]; Spinal cord, 0.5 h): 28.2 ± 7.8 ng eq/ml or g
- Concentration of radioactivity ([1]; Spinal cord, 5 h): 11.4 ± 5.8 ng eq/ml or g
- Concentration of radioactivity ([1]; Spinal cord, 12 h): 4.9 ± 2.4 ng eq/ml or g
- Concentration of radioactivity ([1]; Spinal cord, 24 h): 1.6 ± 1.1 ng eq/ml or g
- Concentration of radioactivity ([1]; Spleen, 0.5 h): 1377.2 ± 292.1 ng eq/ml or g
- Concentration of radioactivity ([1]; Spleen, 5 h): 510.7 ± 68.2 ng eq/ml or g
- Concentration of radioactivity ([1]; Spleen, 12 h): 312.9 ± 31.8 ng eq/ml or g
- Concentration of radioactivity ([1]; Spleen, 24 h): 217.7 ± 21.3 ng eq/ml or g
- Concentration of radioactivity ([1]; Spleen, 72 h): 62.4 ± 7.3 (N.C.) ng eq/ml or g
- Concentration of radioactivity ([1]; Spleen, 168 h): 17.0 ± 4.3 (N.C.) ng eq/ml or g
- Concentration of radioactivity ([1]; Submaxillary gland, 0.5 h): 1009.9 ± 265.5 ng eq/ml or g
- Concentration of radioactivity ([1]; Submaxillary gland, 5 h): 309.9 ± 62.2 ng eq/ml or g
- Concentration of radioactivity ([1]; Submaxillary gland, 12 h): 123.7 ± 24.6 ng eq/ml or g
- Concentration of radioactivity ([1]; Submaxillary gland, 24 h): 78.5 ± 12.3 ng eq/ml or g
- Concentration of radioactivity ([1]; Submaxillary gland, 72 h): 18.0 ± 5.0 (N.C.) ng eq/ml or g
- Concentration of radioactivity ([1]; Submaxillary gland, 168 h): 6.9 ± 2.5 (N.C.) ng eq/ml or g
- Concentration of radioactivity ([1]; Testis, 0.5 h): 68.5 ± 21.6 ng eq/ml or g
- Concentration of radioactivity ([1]; Testis, 5 h): 128.2 ± 41.8 ng eq/ml or g
- Concentration of radioactivity ([1]; Testis, 12 h): 49.6 ± 10.4 ng eq/ml or g
- Concentration of radioactivity ([1]; Testis, 24 h): 18.7 ± 2.4 ng eq/ml or g
- Concentration of radioactivity ([1]; Testis, 72 h): 8.3 ± 10.2 (N.C.) ng eq/ml or g
- Concentration of radioactivity ([1]; Thymus, 0.5 h): 538.8 ± 138.4 ng eq/ml or g
- Concentration of radioactivity ([1]; Thymus, 5 h): 298.8 ± 61.8 ng eq/ml or g
- Concentration of radioactivity ([1]; Thymus, 12 h): 181.8 ± 19.4 ng eq/ml or g
- Concentration of radioactivity ([1]; Thymus, 24 h): 132.1 ± 3.9 ng eq/ml or g
- Concentration of radioactivity ([1]; Thymus, 72 h): 37.5 ± 8.1 (N.C.) ng eq/ml or g
- Concentration of radioactivity ([1]; Thymus, 168 h): 10.6 ± 3.3 (N.C.) ng eq/ml or g
- Concentration of radioactivity ([1]; Thyroid, 0.5 h): 826.4 ± 164.2 ng eq/ml or g
- Concentration of radioactivity ([1]; Thyroid, 5 h): 279.2 ± 83.8 ng eq/ml or g
- Concentration of radioactivity ([1]; Thyroid, 12 h): 124.3 ± 25.9 ng eq/ml or g
- Concentration of radioactivity ([1]; Thyroid, 24 h): 55.2 ± 7.4 ng eq/ml or g
- time of maximum tissue concentration ([1]; large intestine): 12 h
- radioactivity concentration as % of the maximum concentration ([1]; other tissues, 168 h): ≤ 3%
- plasma radioactivity ([1]; plasma, 72 h): undetectable
- time of maximum tissue concentration ([1]; testis, epididymis and cecum): 5 h
- radioactive component in plasma and kidney (HPLC radiochromatogram) [2]: most abundant radioactive component
- Vd [3]: 8.9 L/kg
- radioactivity in autoradiogram ([4]; kidney): relatively high level of radioactivity
- radioactivity in autoradiogram ([4]; liver): low level of radioactivity
- radioactivity in autoradiogram ([4]; other tissues examined): negligible radioactivity
Compound: Cc1cc(N2CCN([C@@H]3CN[C@H](C(=O)N4CCSC4)C3)CC2)n(-c2ccccc2)n1 [Teneligliptin, 3‐[(2S,4S)‐4‐[4‐(3‐methyl‐1‐phenyl‐1H‐pyrazol‐5‐yl)piperazin‐1‐yl]pyrrolidin‐2‐ylcarbonyl] thiazolidine]
- exposure versus healthy subjects ([5]; patients with hepatic disorders ref 18): 1.59 fold
- exposure versus healthy subjects ([5]; patients with renal disorders ref 17): 1.68 fold
- TNF‐α expression in the aorta [6]: decreased
- endothelial dysfunction [6]: attenuated
